Values quoted from earlier work in patent US11865201B2, “Product for dyeing keratinous material, containing aminosilicone, a chromophoric compound and ethoxylated fatty acid ester” (Henkel AG & Co. KGaA, priority 2019, dated 2024).

Conditions: 25° C.

## CCN(Cc1cccc(S(=O)(=O)[O-])c1)c1ccc(C(=C2C=CC(=[N+](CC)Cc3cccc(S(=O)(=O)[O-])c3)C=C2)c2ccccc2S(=O)(=O)[O-])cc1.[Na+].[Na+] [Acid Blue 9]
  solubility in water: more than 20 wt. %

## O=S(=O)([O-])c1ccc(N=Nc2c(O)ccc3ccccc23)cc1.[Na+] [Acid Orange 7, sodium salt of 4-[(2-hydroxy-1-naphthyl)azo]benzene sulphonate]
  solubility in water: more than 7 g/L

## Nc1cc(S(=O)(=O)[O-])cc2cc(S(=O)(=O)[O-])c(N=Nc3ccccc3)c(O)c12.[Na+].[Na+] [Acid Red 33, diantrium salt of 5-amino-4-hydroxy-3-(phenylazo)-naphthalene-2,7-disulphonate]
  solubility in water: 2500 µg/mL

## O=C([O-])c1c(Cl)c(Cl)c(Cl)c(Cl)c1-c1c2c(Br)cc(=O)c(Br)c-2oc2c(Br)c(O)cc(Br)c12.O=C([O-])c1c(Cl)c(Cl)c(Cl)c(Cl)c1-c1c2c(Br)cc(=O)c(Br)c-2oc2c(Br)c(O)cc(Br)c12.[Na+].[Na+] [Acid Red 92, disodium salt of 3,4,5,6-tetrachloro-2-(1,4,5,8-tetrabromo-6-hydroxy-3-oxoxanthen-9-yl)benzoic acid]
  solubility in water: greater than 10 g/L

## O=C([O-])C1=NN(c2ccc(S(=O)(=O)[O-])cc2)C(=O)C1N=Nc1ccc(S(=O)(=O)[O-])cc1.[Na+].[Na+].[Na+] (centres unmarked) [Acid Yellow 23, trisodium salt of 4,5-dihydro-5-oxo-1-(4-sulfophenyl)-4-((4-sulfophenyl)azo)-1H-pyrazole-3-carboxylic acid]
  solubility in water (in words): highly soluble in water
